Source: patent US7517987B2, “Caspase inhibitors and uses thereof” (Vertex Pharmaceutical Incorporated, priority 1999, dated 2009)
pIC50: −log10 of the molar value.

Columns and labels:
Caspase-3 = molecular target: T1, Caspase-3 (Homo sapiens, UniProt P42574); experiment: Caspase-3 enzyme assay, cleavage of fluorogenic substrate; assay type: biochemical; details: second order rate constant of enzyme inactivation; substrate Acetyl-Asp-Glu-val-Asp-amino-4-methylcoumarin
T1 sequence (P42574 29-175 limits assumed): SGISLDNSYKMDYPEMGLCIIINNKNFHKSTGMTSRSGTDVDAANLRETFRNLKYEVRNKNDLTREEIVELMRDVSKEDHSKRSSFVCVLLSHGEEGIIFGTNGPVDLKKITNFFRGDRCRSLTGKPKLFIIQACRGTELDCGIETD
T1 sequence (P42574 176-277 limits assumed): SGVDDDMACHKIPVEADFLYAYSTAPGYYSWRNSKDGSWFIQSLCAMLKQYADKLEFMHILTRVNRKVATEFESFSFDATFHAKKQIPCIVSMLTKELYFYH
Description: (§1) The assays for caspase inhibition are based on the cleavage of a fluorogenic substrate by recombinant, purified human Caspases-1, -3, -7 or -8. The assays are run in essentially the same way as those reported by Garcia-Calvo et al. (J. Biol. Chem. 273 (1998), 32608-32613), using a substrate specific for each enzyme. The substrate for Caspase-1 is Acetyl-Tyr-Val-Ala-Asp-amino-4-methylcoumarin. The substrate for Caspases-3, -7 and -8 is Acetyl-Asp-Glu-val-Asp-amino-4-methylcoumarin.
(§2) The observed rate of enzyme inactivation at a particular inhibitor concentration, kobs, is computed by direct fits of the data to the equation derived by Thornberry et al. (Biochemistry 33 (1994), 3943-3939) using a nonlinear least-squares analysis computer program (PRISM 2.0; GraphPad software). To obtain the second order rate constant, kinact, kobs values are plotted against their respective inhibitor concentrations and kinact values are subsequently calculated by computerized linear regression.

Caspase-1 = molecular target: T2, Caspase-1 (Homo sapiens, UniProt P29466); experiment: Caspase-1 enzyme assay, cleavage of fluorogenic substrate; assay type: biochemical; details: second order rate constant of enzyme inactivation; substrate Acetyl-Tyr-Val-Ala-Asp-amino-4-methylcoumarin
T2 sequence (P29466 120-297 limits assumed): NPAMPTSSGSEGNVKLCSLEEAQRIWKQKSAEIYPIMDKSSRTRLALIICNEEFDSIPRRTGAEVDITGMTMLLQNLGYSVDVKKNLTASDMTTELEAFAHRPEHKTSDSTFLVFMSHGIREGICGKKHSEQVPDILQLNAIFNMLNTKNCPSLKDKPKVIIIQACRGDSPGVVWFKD
T2 sequence (P29466 317-404 limits assumed): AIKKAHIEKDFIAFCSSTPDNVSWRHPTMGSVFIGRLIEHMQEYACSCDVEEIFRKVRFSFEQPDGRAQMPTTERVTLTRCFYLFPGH
Description: as §1, §2

Caspase-8 = Caspase-8 (Homo sapiens, UniProt Q14790); experiment: Caspase-8 enzyme assay, cleavage of fluorogenic substrate; assay type: biochemical; details: second order rate constant of enzyme inactivation; substrate Acetyl-Asp-Glu-val-Asp-amino-4-methylcoumarin
Description: as §1, §2

Jurkat E6.1 cells = experiment: Anti-Fas induced apoptosis assay; assay type: cell-based; details: Homo sapiens, anti-Fas antibody CH-11 10 ng/ml, 16-18 hrs, DNA fragmentation, OD405 nm
Description: Cellular apoptosis may be induced by the binding of Fas ligand (FasL) to its receptor, CD95 (Fas). CD95 is one of a family of related receptors, known as death receptors, which can trigger apoptosis in cells via activation of the caspase enzyme cascade. The process is initiated by the binding of the adapter molecule FADD/MORT-1 to the cytoplasmic domain of the CD-95 receptor-ligand complex. Caspase-8 then binds FADD and becomes activated, initiating a cascade of events that involve the activation of downstream caspases and subsequent cellular apoptosis. Apoptosis can also be induced in cells expressing CD95 eg the Jurkat E6.1 T cell lymphoma cell line, using an antibody, rather than FasL, to crosslink the cell surface CD95. Anti-Fas-induced apoptosis is also triggered via the activation of caspase-8. This provides the basis of a cell based assay to screen compounds for inhibition of the caspase-8-mediated apoptotic pathway.
Jurkat E6.1 cells are cultured in complete medium consisting of RPMI-1640 (Sigma No)+10% foetal calf serum (Gibco BRL No. 10099-141)+2 mM L-glutamine (Sigma No. G-7513). The cells are harvested in log phase of growth. 100 ml Cells at 5-8×10^5 cells/ml are transferred to sterile 50 ml Falcon centrifuge tubes and centrifuged for 5 minutes at 100×g at room temperature. The supernatant is removed and the combined cell pellets resuspended in 25 ml of complete medium. The cells are counted and the density adjusted to 2×10^6cells/ml with complete medium.
The test compound is dissolved in dimethyl sulphoxide (DMSO)(Sigma No. D-2650) to give a 100 mM stock solution. This is diluted to 400 μM in complete medium, then serially diluted in a 96-well plate prior to addition to the cell assay plate.
100 μl of the cell suspension ([…]) is added to each well of a sterile 96-well round-bottomed cluster plate (Costar No. 3790). 501l of compound solution at the appropriate dilution and 50 μl of anti-Fas antibody, clone CH-11 (Kamiya No.MC-060) at a final concentration of 10 ng/ml, are added to the wells. Control wells are set up minus antibody and minus compound but with a serial dilution of DMSO as vehicle control. The plates are incubated for 16-18 hrs at 37° C. in 5% CO2 and 95% humidity.
Apoptosis of the cells is measured by the quantitation of DNA fragmentation using a ‘Cell Death Detection Assay’ from Boehringer-Mannheim, No. 1544 675. After incubation for 16-18 hrs the assay plates are centrifuged at 100×g at room temperature for 5 minutes. 150 μl of the supernatant are removed and replaced by 150 μl of fresh complete medium. The cells are then harvested and 200 μl of the lysis buffer supplied in the assay kit are added to each well. The cells are triturated to ensure complete lysis and incubated for 30 minutes at 4° C. The plates are then centrifuged at 1900×g for 10 minutes and the supernatants diluted 1:20 in the incubation buffer provided. 100 μl of this solution is then assayed exactly according to the manufacturer's instructions supplied with the kit. OD405 nm is measured 20 minutes after addition of the final substrate in a SPECTRAmax Plus plate reader (Molecular Devices). OD405 nm is plotted versus compound concentration and the IC50 values for the compounds are calculated using the curve fitting program SOFTmax Pro (Molecular Devices) using the four parameter fit option.

[1] = system: IL-1β secretion from peripheral blood mononuclear cells (PBMC); experiment: Inhibition of IL-1β secretion from mixed population of PBMC; assay type: cell-based; details: Homo sapiens, LPS 50 ng/ml, 16-18 h, mature IL-1β in supernatant
Description: Processing of pre-IL-1β by caspase-1 can be measured in cell culture using a variety of cell sources. Human PBMC obtained from healthy donors provides a mixed population of lymphocyte and mononuclear cells that produce a spectrum of interleukins and cytokines in response to many classes of physiological stimulators.
The test compound is dissolved in dimethyl sulfoxide (DMSO,Sigma #D-2650) to give a 100 mM stock solution. This is diluted in complete medium consisting of RPMI containing 10% heat inactivated FCS (Gibco BRL #10099-141), 2 mM L-Glutamine (Sigma, #G-7513), 100U penicillin and 100 μg/ml streptomycin (Sigma #P-7539). The final concentration range of test compound is from 100 μM down to 6 nM over eight dilution steps. The highest concentration of test compound is equivalent to 0.1% DMSO in the assay.
Human PBMC are isolated from Buffy Coats obtained from the blood bank using centrifugation on Ficoll-Paque leukocyte separation medium (Amersham, #17-1440-O2) and the cellular assay is performed in a sterile 96 well flat-bottomed plate (Nunc). Each well contains 100 μl of the cell suspension, 1×10^5 cells, 50 μl of compound dilutions and 50 μl of LPS (Sigma #L-3012) at 50 ng/ml final concentration. Controls consist of cells ± LPS stimulation and a serial dilution of DMSO diluted in the same way as compound. The plates are incubated for 16-18 h at 37° C. in 5% CO2 & 95% humidity atmosphere.
After 16-18 h the supernatants are harvested after centrifuging the plates at 100×g at 18° C. for 15 min and assayed for their IL-1β content. Measurement of mature IL-1β in the supernatant is performed using the Quantikine kits (R&D Systems) according to manufacturer's instructions. Mature IL-1β levels of about 600-1500 pg/ml are observed for PBMCs in positive control wells.
The inhibitory potency of the compounds can be represented by an IC50 value, which is the concentration of inhibitor at which 50% of the mature IL-1β is detected in the supernatant as compared to the positive controls.

Caspase-7 = molecular target: T3, Caspase-7 (Homo sapiens, UniProt P55210); experiment: Caspase-7 enzyme assay, cleavage of fluorogenic substrate; assay type: biochemical; details: second order rate constant of enzyme inactivation; substrate Acetyl-Asp-Glu-val-Asp-amino-4-methylcoumarin
T3 sequence (P55210 24-198 limits assumed): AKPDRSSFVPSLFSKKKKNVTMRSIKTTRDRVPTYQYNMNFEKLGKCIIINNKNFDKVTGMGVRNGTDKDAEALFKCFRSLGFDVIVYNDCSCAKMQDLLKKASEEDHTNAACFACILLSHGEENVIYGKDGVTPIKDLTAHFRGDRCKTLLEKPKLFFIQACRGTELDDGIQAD
T3 sequence (P55210 207-303 limits assumed): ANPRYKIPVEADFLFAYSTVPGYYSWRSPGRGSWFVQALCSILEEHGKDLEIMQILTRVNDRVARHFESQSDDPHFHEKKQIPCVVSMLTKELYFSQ
Description: as §1, §2

Caspase-8, sequence (Q14790 217-374 limits assumed): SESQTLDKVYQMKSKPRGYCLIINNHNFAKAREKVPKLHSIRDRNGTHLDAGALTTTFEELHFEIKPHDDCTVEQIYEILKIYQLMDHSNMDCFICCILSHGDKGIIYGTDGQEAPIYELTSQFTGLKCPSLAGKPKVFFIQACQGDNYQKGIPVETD
Caspase-8, sequence (Q14790 385-479 limits assumed): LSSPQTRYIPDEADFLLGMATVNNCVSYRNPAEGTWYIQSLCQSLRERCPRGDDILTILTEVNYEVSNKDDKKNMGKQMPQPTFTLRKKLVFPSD

SMILES	Kinact (Caspase-3) [M⁻¹ s⁻¹]	Kinact (Caspase-1) [M⁻¹ s⁻¹]	Caspase-8 Kinact (Caspase-8) [M⁻¹ s⁻¹]	pIC50 (Jurkat E6.1 cells)	pIC50 [1]	Caspase-7 Kinact (Caspase-7) [M⁻¹ s⁻¹]
Cc1cccc(=O)n1CC(=O)NC(CC(=O)O)C(=O)CF (stereo not drawn) [Compound 1A-3, 5-Fluoro-3-[2-(6-methyl-2-oxo-2H-pyridin-1-yl)-acetylamino]-4-oxo-pentanoic acid]	51000	36000	6750	6.68	–	–
O=C(O)CC(NC(=O)Cn1ccc(-c2ccccc2)cc1=O)C(=O)CF (stereo not drawn) [Compound 1A-4, 5-Fluoro-3-[2-(4-phenyl-2-oxo-2H-pyridin-1-yl)-acetylamino]-4-oxo-pentanoic acid]	–	40000	13500	6.19	–	–
C[C@@H](C(=O)NC(CC(=O)O)C(=O)CF)n1c(=O)ccc2ccccc21 (stereo partly drawn) [Compound 1B-1, 5-Fluoro-4-oxo-3-[(S)-2-(2-oxo-2H-quinolin-1-yl)-propionylamino]-pentanoic acid]	24000	47000	12000	6.85	–	–
O=C(O)CC(NC(=O)Cn1ccc2ccccc2c1=O)C(=O)CF (stereo not drawn) [Compound 1C-1, 5-Fluoro-4-oxo-3-[2-(1-oxo-1H-isoquinolin-2-yl)-acetylamino]-pentanoic acid]	130000	248000	27000	7.22	5.54	26000
CCC[C@@H](C(=O)NC(CC(=O)O)C(=O)CF)n1cnc2ccccc2c1=O (stereo partly drawn) [Compound 1C-11, 5-Fluoro-4-oxo-3-[(2S)-2-(4-oxo-4H-quinazolin-3-yl)-pentanoylamino]-pentanoic acid]	185000	419000	72500	7.70	6.40	–
CC(C)[C@@H](C(=O)NC(CC(=O)O)C(=O)CF)N1Cc2ccccc2N(Cc2cccc(Cl)c2)C1=O (stereo partly drawn) [Compound 1D-1, 5-Fluoro-4-oxo-3-[(2S)-2-[1-(3-chlorobenzyl)-2-oxo-1,4-dihydro-2H-quinazolin-3-yl]-3-methyl-butyrylamino]-pentanoic acid]	67000	107000	77000	7.70	–	–
O=C(O)CC(NC(=O)Cn1cnc2sccc2c1=O)C(=O)CF (stereo not drawn) [Compound 1E-1, 5-Fluoro-4-oxo-3-[2-(4-oxo-4H-thieno[2,3-d]pyrimidin-3-yl)-acetylamino]-pentanoic acid]	64000	46000	13500	7.15	5.00	–
C[C@@H](C(=O)NC(CC(=O)O)C(=O)CF)N1C(=O)c2ccccc2C1=O (stereo partly drawn) [Compound 1F-3, 5-Fluoro-4-oxo-3-[(2S)-2-(1,3-dioxo-1,3-dihydro-isoindol-2-yl)-propionylamino]-pentanoic acid]	220000	115000	15500	7.52	5.40	–
CC[C@@H](C(=O)NC(CC(=O)O)C(=O)CF)n1cnccc1=O (stereo partly drawn) [Compound 1G-1, 5-Fluoro-4-oxo-3-[(2S)-2-(6-oxo-6H-pyrimidin-1-yl)-butyrylamino]-pentanoic acid]	420000	307000	68500	7.70	6.22	147000
